Source: the supplement of paper PMC10883282
± gives the standard deviation of the averaged measurements.

System: RD-ES
Test: relative viability vs DMSO control (72 h) (fraction); higher = more viable cells
Summary of the method: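 After seeding at densities set for 80–90% confluence in 384-well plates, sarcoma cell lines waited 24 h before 2.5 µl of serially diluted compound was added. Source plates held 10 mM down to 0.0002 mM. Plates were incubated 72 h at 37 °C with 5% CO2, with 0.1% DMSO vehicle and a 5 µM positive control, and relative viability was taken from ATPLite as percent growth averaged over up to triplicate wells, with 1 set as full and 0 as none.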

Row | SMILES | relative viability (0.00017 µM) | relative viability (0.00051 µM) | relative viability (0.00152 µM) | relative viability (0.00457 µM) | relative viability (0.01372 µM) | relative viability (0.04115 µM) | relative viability (0.1235 µM) | relative viability (0.3704 µM) | relative viability (1.111 µM) | relative viability (3.333 µM) | relative viability (10 µM)
1 | CCCS(=O)(=O)Nc1ccc(F)c(C(=O)c2c[nH]c3ncc(-c4ccc(Cl)cc4)cc23)c1F [Vemurafenib] | 0.978 ± 0.032 | 0.983 ± 0.024 | 0.975 ± 0.044 | 0.995 ± 0.051 | 0.982 ± 0.039 | 0.994 ± 0.05 | 0.99 ± 0.041 | 0.991 ± 0.047 | 0.984 ± 0.039 | 0.967 ± 0.042 | 0.7 ± 0.27
2 | C=CC(=O)N1CCC([C@@H]2CCNc3c(C(N)=O)c(-c4ccc(Oc5ccccc5)cc4)nn32)CC1 [Zanubrutinib] | 0.953 ± 0.033 | 0.956 ± 0.013 | 0.978 ± 0.025 | 0.985 ± 0.025 | 0.978 ± 0.023 | 0.943 ± 0.044 | 0.921 ± 0.027 | 0.942 ± 0.046 | 0.887 ± 0.053 | 0.888 ± 0.07 | 0.904 ± 0.049
3 | CC(=O)Nc1cccc(-n2c(=O)n(C3CC3)c(=O)c3c(Nc4ccc(I)cc4F)n(C)c(=O)c(C)c32)c1 [Trametinib] | 0.979 ± 0.039 | 0.973 ± 0.036 | 0.969 ± 0.044 | 0.957 ± 0.022 | 0.973 ± 0.049 | 0.959 ± 0.037 | 0.946 ± 0.019 | 0.975 ± 0.031 | 0.978 ± 0.06 | 0.957 ± 0.052 | 0.941 ± 0.062
4 | C=CC(=O)N1CCC[C@@H](n2nc(-c3ccc(Oc4ccccc4)cc3)c3c(N)ncnc32)C1 [Ibrutinib] | 0.985 ± 0.032 | 0.967 ± 0.043 | 0.993 ± 0.05 | 0.97 ± 0.038 | 0.976 ± 0.04 | 0.988 ± 0.032 | 0.957 ± 0.034 | 0.969 ± 0.015 | 0.989 ± 0.04 | 0.957 ± 0.031 | 0.882 ± 0.013
5 | Cc1ccc(F)c(NC(=O)Nc2ccc(-c3cccc4[nH]nc(N)c34)cc2)c1 [Linifanib] | 1 ± 0.043 | 0.998 ± 0.012 | 0.994 ± 0.011 | 0.978 ± 0.023 | 1 ± 0.028 | 1.01 ± 0.048 | 1 ± 0.014 | 0.982 ± 0.038 | 1.01 ± 0.018 | 0.975 ± 0.022 | 0.983 ± 0.043
6 | CC[C@H](Nc1ncnc2[nH]cnc12)c1nc2cccc(F)c2c(=O)n1-c1ccccc1 [Idelalisib] | 0.9939 ± 0.0089 | 0.99 ± 0.033 | 0.977 ± 0.04 | 0.984 ± 0.037 | 0.977 ± 0.033 | 0.98 ± 0.019 | 0.982 ± 0.028 | 0.97 ± 0.027 | 0.909 ± 0.026 | 0.88 ± 0.034 | 0.744 ± 0.019
7 | CC(C)(C)c1cc(NC(=O)Nc2ccc(-c3cn4c(n3)sc3cc(OCCN5CCOCC5)ccc34)cc2)no1 [Quizartinib] | 0.968 ± 0.018 | 0.983 ± 0.028 | 0.993 ± 0.018 | 0.9932 ± 0.0065 | 0.993 ± 0.011 | 0.995 ± 0.005 | 0.986 ± 0.02 | 1 ± 0.025 | 0.991 ± 0.019 | 0.951 ± 0.043 | 0.869 ± 0.035
8 | CNC(=O)c1cc(Oc2ccc(NC(=O)Nc3ccc(Cl)c(C(F)(F)F)c3)c(F)c2)ccn1 [Regorafenib] | 0.965 ± 0.055 | 0.959 ± 0.053 | 0.991 ± 0.036 | 0.975 ± 0.047 | 0.983 ± 0.042 | 0.979 ± 0.014 | 0.986 ± 0.034 | 0.973 ± 0.052 | 0.932 ± 0.058 | 0.87 ± 0.043 | 0.776 ± 0.033
9 | CNC(=O)c1ccc(-c2cnc3ncc(Cc4ccc5ncccc5c4)n3n2)cc1F [Capmatinib] | 0.992 ± 0.014 | 1.005 ± 0.0083 | 0.9871 ± 0.0074 | 0.994 ± 0.017 | 0.98 ± 0.021 | 1 ± 0.018 | 1.01 ± 0.023 | 1.03 ± 0.024 | 1.03 ± 0.025 | 1.02 ± 0.011 | 1 ± 0.028
